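Where inhibition never reached the appropriate level, the endpoint shown equals the highest concentration tested. Otherwise, values were interpolated linearly from a five-concentration, 48-hour dose response in 96-well plates. GI50 marks 50% less growth. TGI is the concentration that stops growth completely.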
Test system: SK-MEL-5 melanoma
Assay: NCI-60 cell line screen, 48 h

Row | SMILES | GI50 [µM] | TGI [µM]
1 | CC(C)=CCC/C(C)=C/CC/C(C)=C/CC/C=C(\C)CC/C=C(\C)CCC(=O)Nc1ccn(C2OC(CO)C(O)C2(F)F)c(=O)n1 (stereo not drawn) | 0.168 | 4.75
2 | COc1ccc(-c2cc(=O)c3c(OC)c(OC)c(OC)c(OC)c3o2)cc1 | – | > 100
3 | Cc1c(C2=C(c3cn(C)c4ccccc34)C(=O)NC2=O)c2ccccc2n1C | 2.29 | > 25
4 | CC1(C)CCC[C@]2(C)[C@@H](C=O)C(C=O)=CC[C@@H]12 | – | 29
5 | CCn1c2ccccc2c2cc(/C=C(/C#N)C(N)=O)ccc21 | 8.5 | 54.2
6 | COc1ccc(C(=O)N2c3ccccc3Sc3ccccc32)c(OC)c1 | 0.408 | > 100
7 | CCN1C(=O)N(CC)C2C1NN=c1s/c(=C3\C(=O)N(CCc4ccccc4)c4ccccc43)c(=O)n12 (stereo not drawn) | 0.305 | 1.23
8 | CN(C)c1ccc(N=Nc2ccncc2)cc1 | – | > 100
9 | CC1(C)N=C(N)N=C(N)N1c1ccc(CCCCc2ccc(S(=O)(=O)F)cc2)c(Cl)c1 | 0.345 | 12.5
10 | N#CN1CC[C@H](C(=O)Nc2ncc(-c3ccncc3)s2)C1 | 0.0925 | 5.58
11 | Cn1cc(-c2nonc2-c2cn(C)c3ccccc23)c2ccccc21 | 1.34 | > 100
12 | CN(CCCCCl)P(=O)(OCCS(=O)(=O)CC(NC(=O)CCC(N)C(=O)O)C(=O)NC(C(=O)O)c1ccccc1)OCC1OC(n2cc(F)c(=O)[nH]c2=O)CC1O (stereo not drawn) | 0.989 | 15.9
13 | CCN(CCO)CC(C)Nc1ccc([N+](=O)[O-])c2sc3ccccc3c(=O)c12 (stereo not drawn) | 1.52 | 5.56
14 | COC(=O)c1nc(-c2ccccc2)oc1S(=O)(=O)n1nc(C)cc1N | 15.5 | 29.7
15 | CCCCCn1sc(=O)n(Cc2ccc(CNC(=O)OCc3ccc4cccc(O)c4n3)cc2)c1=O | 1.69 | 3.07
16 | Cn1cncc1CC1COC(=O)C1C(O)c1ccccc1 (stereo not drawn) | – | > 100
17 | CN1CCN(Cc2ccc(NC(=O)c3[nH]ncc3Nc3ncnc4sc5c(c34)CCCC5)cc2)CC1 | 0.543 | 1.87
18 | CCCCn1c(=O)c2c(nc3n2CCCN3CCc2ccc(OCC(=O)NCCN(CC)CC)cc2)n(CCCC)c1=O | 0.864 | 1.65

Test system: MALME-3M melanoma
Assay: NCI-60 cell line screen, 48 h

Row | SMILES | GI50 [µM] | TGI [µM]
19 | CC(C)=CCC/C(C)=C/CC/C(C)=C/CC/C=C(\C)CC/C=C(\C)CCC(=O)Nc1ccn(C2OC(CO)C(O)C2(F)F)c(=O)n1 (stereo not drawn) | 0.438 | 6.71
20 | COc1ccc(-c2cc(=O)c3c(OC)c(OC)c(OC)c(OC)c3o2)cc1 | – | > 100
21 | Cc1c(C2=C(c3cn(C)c4ccccc34)C(=O)NC2=O)c2ccccc2n1C | > 25 | > 25
22 | CC1(C)CCC[C@]2(C)[C@@H](C=O)C(C=O)=CC[C@@H]12 | – | 32
23 | CCn1c2ccccc2c2cc(/C=C(/C#N)C(N)=O)ccc21 | > 75.2 | > 100
24 | COc1ccc(C(=O)N2c3ccccc3Sc3ccccc32)c(OC)c1 | 0.416 | > 100
25 | CCN1C(=O)N(CC)C2C1NN=c1s/c(=C3\C(=O)N(CCc4ccccc4)c4ccccc43)c(=O)n12 (stereo not drawn) | 1.04 | 20
26 | CN(C)c1ccc(N=Nc2ccncc2)cc1 | – | > 100
27 | CC1(C)N=C(N)N=C(N)N1c1ccc(CCCCc2ccc(S(=O)(=O)F)cc2)c(Cl)c1 | 12 | 35.9
28 | N#CN1CC[C@H](C(=O)Nc2ncc(-c3ccncc3)s2)C1 | < 0.0129 | 0.0694
29 | Cn1cc(-c2nonc2-c2cn(C)c3ccccc23)c2ccccc21 | 1.06 | > 100
30 | CN(CCCCCl)P(=O)(OCCS(=O)(=O)CC(NC(=O)CCC(N)C(=O)O)C(=O)NC(C(=O)O)c1ccccc1)OCC1OC(n2cc(F)c(=O)[nH]c2=O)CC1O (stereo not drawn) | 8.98 | > 72.2
31 | CCN(CCO)CC(C)Nc1ccc([N+](=O)[O-])c2sc3ccccc3c(=O)c12 (stereo not drawn) | 0.421 | 2.13
32 | COC(=O)c1nc(-c2ccccc2)oc1S(=O)(=O)n1nc(C)cc1N | 1.78 | 4.06
33 | CCCCCn1sc(=O)n(Cc2ccc(CNC(=O)OCc3ccc4cccc(O)c4n3)cc2)c1=O | 1.56 | 3
34 | Cn1cncc1CC1COC(=O)C1C(O)c1ccccc1 (stereo not drawn) | – | > 100
35 | CN1CCN(Cc2ccc(NC(=O)c3[nH]ncc3Nc3ncnc4sc5c(c34)CCCC5)cc2)CC1 | 1.35 | 2.82
36 | CCCCn1c(=O)c2c(nc3n2CCCN3CCc2ccc(OCC(=O)NCCN(CC)CC)cc2)n(CCCC)c1=O | 0.922 | 1.98

Test system: MOLT-4 leukemia
Assay: NCI-60 cell line screen, 48 h

Row | SMILES | GI50 [µM] | TGI [µM]
37 | CC(C)=CCC/C(C)=C/CC/C(C)=C/CC/C=C(\C)CC/C=C(\C)CCC(=O)Nc1ccn(C2OC(CO)C(O)C2(F)F)c(=O)n1 (stereo not drawn) | 0.0743 | 1.5
38 | COc1ccc(-c2cc(=O)c3c(OC)c(OC)c(OC)c(OC)c3o2)cc1 | – | > 100
39 | Cc1c(C2=C(c3cn(C)c4ccccc34)C(=O)NC2=O)c2ccccc2n1C | 2.18 | > 25
40 | CC1(C)CCC[C@]2(C)[C@@H](C=O)C(C=O)=CC[C@@H]12 | – | 30.5
41 | CCn1c2ccccc2c2cc(/C=C(/C#N)C(N)=O)ccc21 | 6.66 | > 100
42 | COc1ccc(C(=O)N2c3ccccc3Sc3ccccc32)c(OC)c1 | 0.447 | > 100
43 | CCN1C(=O)N(CC)C2C1NN=c1s/c(=C3\C(=O)N(CCc4ccccc4)c4ccccc43)c(=O)n12 (stereo not drawn) | 1.49 | > 100
44 | CN(C)c1ccc(N=Nc2ccncc2)cc1 | – | > 100
45 | CC1(C)N=C(N)N=C(N)N1c1ccc(CCCCc2ccc(S(=O)(=O)F)cc2)c(Cl)c1 | 0.518 | 21.4
46 | N#CN1CC[C@H](C(=O)Nc2ncc(-c3ccncc3)s2)C1 | < 0.01 | 3.8
47 | Cn1cc(-c2nonc2-c2cn(C)c3ccccc23)c2ccccc21 | 1.72 | > 100
48 | CN(CCCCCl)P(=O)(OCCS(=O)(=O)CC(NC(=O)CCC(N)C(=O)O)C(=O)NC(C(=O)O)c1ccccc1)OCC1OC(n2cc(F)c(=O)[nH]c2=O)CC1O (stereo not drawn) | 0.274 | > 95.5
49 | CCN(CCO)CC(C)Nc1ccc([N+](=O)[O-])c2sc3ccccc3c(=O)c12 (stereo not drawn) | 0.361 | 2.89
50 | COC(=O)c1nc(-c2ccccc2)oc1S(=O)(=O)n1nc(C)cc1N | 3.08 | 11.4
51 | CCCCCn1sc(=O)n(Cc2ccc(CNC(=O)OCc3ccc4cccc(O)c4n3)cc2)c1=O | 3.02 | 45.2
52 | Cn1cncc1CC1COC(=O)C1C(O)c1ccccc1 (stereo not drawn) | – | > 100
53 | CN1CCN(Cc2ccc(NC(=O)c3[nH]ncc3Nc3ncnc4sc5c(c34)CCCC5)cc2)CC1 | 0.108 | 0.503
54 | CCCCn1c(=O)c2c(nc3n2CCCN3CCc2ccc(OCC(=O)NCCN(CC)CC)cc2)n(CCCC)c1=O | 2.14 | 10.5

Test system: SNB-19 CNS
Assay: NCI-60 cell line screen, 48 h

Row | SMILES | GI50 [µM] | TGI [µM]
55 | CC(C)=CCC/C(C)=C/CC/C(C)=C/CC/C=C(\C)CC/C=C(\C)CCC(=O)Nc1ccn(C2OC(CO)C(O)C2(F)F)c(=O)n1 (stereo not drawn) | 0.0245 | 11.7
56 | COc1ccc(-c2cc(=O)c3c(OC)c(OC)c(OC)c(OC)c3o2)cc1 | – | > 100
57 | Cc1c(C2=C(c3cn(C)c4ccccc34)C(=O)NC2=O)c2ccccc2n1C | > 25 | > 25
58 | CC1(C)CCC[C@]2(C)[C@@H](C=O)C(C=O)=CC[C@@H]12 | – | 77.4
59 | CCn1c2ccccc2c2cc(/C=C(/C#N)C(N)=O)ccc21 | 10.2 | > 87.8
60 | COc1ccc(C(=O)N2c3ccccc3Sc3ccccc32)c(OC)c1 | 0.551 | > 100
61 | CCN1C(=O)N(CC)C2C1NN=c1s/c(=C3\C(=O)N(CCc4ccccc4)c4ccccc43)c(=O)n12 (stereo not drawn) | 0.845 | 19.6
62 | CN(C)c1ccc(N=Nc2ccncc2)cc1 | – | > 100
63 | CC1(C)N=C(N)N=C(N)N1c1ccc(CCCCc2ccc(S(=O)(=O)F)cc2)c(Cl)c1 | 0.773 | 19.1
64 | N#CN1CC[C@H](C(=O)Nc2ncc(-c3ccncc3)s2)C1 | 0.415 | > 69.6
65 | Cn1cc(-c2nonc2-c2cn(C)c3ccccc23)c2ccccc21 | 0.91 | > 100
66 | CN(CCCCCl)P(=O)(OCCS(=O)(=O)CC(NC(=O)CCC(N)C(=O)O)C(=O)NC(C(=O)O)c1ccccc1)OCC1OC(n2cc(F)c(=O)[nH]c2=O)CC1O (stereo not drawn) | 1.3 | > 100
67 | CCN(CCO)CC(C)Nc1ccc([N+](=O)[O-])c2sc3ccccc3c(=O)c12 (stereo not drawn) | 2.34 | 19
68 | COC(=O)c1nc(-c2ccccc2)oc1S(=O)(=O)n1nc(C)cc1N | 15.6 | 34.3
69 | CCCCCn1sc(=O)n(Cc2ccc(CNC(=O)OCc3ccc4cccc(O)c4n3)cc2)c1=O | 4.44 | 16.7
70 | Cn1cncc1CC1COC(=O)C1C(O)c1ccccc1 (stereo not drawn) | – | > 100
71 | CN1CCN(Cc2ccc(NC(=O)c3[nH]ncc3Nc3ncnc4sc5c(c34)CCCC5)cc2)CC1 | 0.282 | 1.48
72 | CCCCn1c(=O)c2c(nc3n2CCCN3CCc2ccc(OCC(=O)NCCN(CC)CC)cc2)n(CCCC)c1=O | 3.24 | 11.4

Test system: A498 renal
Assay: NCI-60 cell line screen, 48 h

Row | SMILES | GI50 [µM] | TGI [µM]
73 | CC(C)=CCC/C(C)=C/CC/C(C)=C/CC/C=C(\C)CC/C=C(\C)CCC(=O)Nc1ccn(C2OC(CO)C(O)C2(F)F)c(=O)n1 (stereo not drawn) | 0.0695 | 18.5
74 | COc1ccc(-c2cc(=O)c3c(OC)c(OC)c(OC)c(OC)c3o2)cc1 | – | 83.9
75 | Cc1c(C2=C(c3cn(C)c4ccccc34)C(=O)NC2=O)c2ccccc2n1C | 1.91 | 11.2
76 | CC1(C)CCC[C@]2(C)[C@@H](C=O)C(C=O)=CC[C@@H]12 | – | > 100
77 | CCn1c2ccccc2c2cc(/C=C(/C#N)C(N)=O)ccc21 | 0.188 | 0.559
78 | COc1ccc(C(=O)N2c3ccccc3Sc3ccccc32)c(OC)c1 | 0.307 | 16.6
79 | CCN1C(=O)N(CC)C2C1NN=c1s/c(=C3\C(=O)N(CCc4ccccc4)c4ccccc43)c(=O)n12 (stereo not drawn) | 0.115 | 0.603
80 | CN(C)c1ccc(N=Nc2ccncc2)cc1 | – | > 100
81 | CC1(C)N=C(N)N=C(N)N1c1ccc(CCCCc2ccc(S(=O)(=O)F)cc2)c(Cl)c1 | 0.981 | 18
82 | N#CN1CC[C@H](C(=O)Nc2ncc(-c3ccncc3)s2)C1 | 0.121 | 0.596
83 | Cn1cc(-c2nonc2-c2cn(C)c3ccccc23)c2ccccc21 | 0.337 | –
84 | CN(CCCCCl)P(=O)(OCCS(=O)(=O)CC(NC(=O)CCC(N)C(=O)O)C(=O)NC(C(=O)O)c1ccccc1)OCC1OC(n2cc(F)c(=O)[nH]c2=O)CC1O (stereo not drawn) | – | > 100
85 | CCN(CCO)CC(C)Nc1ccc([N+](=O)[O-])c2sc3ccccc3c(=O)c12 (stereo not drawn) | 0.252 | 9.54
86 | COC(=O)c1nc(-c2ccccc2)oc1S(=O)(=O)n1nc(C)cc1N | 18.7 | 70.2
87 | CCCCCn1sc(=O)n(Cc2ccc(CNC(=O)OCc3ccc4cccc(O)c4n3)cc2)c1=O | 1.73 | 4.58
88 | Cn1cncc1CC1COC(=O)C1C(O)c1ccccc1 (stereo not drawn) | – | > 100
89 | CN1CCN(Cc2ccc(NC(=O)c3[nH]ncc3Nc3ncnc4sc5c(c34)CCCC5)cc2)CC1 | 0.0865 | 0.668
90 | CCCCn1c(=O)c2c(nc3n2CCCN3CCc2ccc(OCC(=O)NCCN(CC)CC)cc2)n(CCCC)c1=O | 0.54 | 2.51

Source: PubChem BioAssay (NCI)
